Measurements from US7074789B2, “Kinase inhibitors” (Amgen Inc., priority 1999, dated 2006).

Tests used:
Type in all cases: biochemical
Ret-1 = molecular target: T1, Ret-1 (Homo sapiens, UniProt P07949); experiment: Kinase inhibition assay (33P transfer), Ret; settings: Table 6, Ret-1 kinase inhibition class
T1 construct: Kinases are expressed as either kinase domains or full length constructs; made in house

PDGFRB = molecular target: T2, PDGFRB (Homo sapiens, UniProt P09619); experiment: Kinase inhibition assay (33P transfer), PDGFRB; settings: read-out: PDGFRB-1
T2 construct: Kinases are expressed as either kinase domains or full length constructs; made in house

ErbB4 = molecular target: T3, ErbB4 (Homo sapiens, UniProt Q15303); experiment: Kinase inhibition assay (33P transfer), ErbB4; settings: read-out: ErbB4-1
T3 construct: Kinases are expressed as either kinase domains or full length constructs; made in house
T3 sequence (Q15303 26-1308, species assumed): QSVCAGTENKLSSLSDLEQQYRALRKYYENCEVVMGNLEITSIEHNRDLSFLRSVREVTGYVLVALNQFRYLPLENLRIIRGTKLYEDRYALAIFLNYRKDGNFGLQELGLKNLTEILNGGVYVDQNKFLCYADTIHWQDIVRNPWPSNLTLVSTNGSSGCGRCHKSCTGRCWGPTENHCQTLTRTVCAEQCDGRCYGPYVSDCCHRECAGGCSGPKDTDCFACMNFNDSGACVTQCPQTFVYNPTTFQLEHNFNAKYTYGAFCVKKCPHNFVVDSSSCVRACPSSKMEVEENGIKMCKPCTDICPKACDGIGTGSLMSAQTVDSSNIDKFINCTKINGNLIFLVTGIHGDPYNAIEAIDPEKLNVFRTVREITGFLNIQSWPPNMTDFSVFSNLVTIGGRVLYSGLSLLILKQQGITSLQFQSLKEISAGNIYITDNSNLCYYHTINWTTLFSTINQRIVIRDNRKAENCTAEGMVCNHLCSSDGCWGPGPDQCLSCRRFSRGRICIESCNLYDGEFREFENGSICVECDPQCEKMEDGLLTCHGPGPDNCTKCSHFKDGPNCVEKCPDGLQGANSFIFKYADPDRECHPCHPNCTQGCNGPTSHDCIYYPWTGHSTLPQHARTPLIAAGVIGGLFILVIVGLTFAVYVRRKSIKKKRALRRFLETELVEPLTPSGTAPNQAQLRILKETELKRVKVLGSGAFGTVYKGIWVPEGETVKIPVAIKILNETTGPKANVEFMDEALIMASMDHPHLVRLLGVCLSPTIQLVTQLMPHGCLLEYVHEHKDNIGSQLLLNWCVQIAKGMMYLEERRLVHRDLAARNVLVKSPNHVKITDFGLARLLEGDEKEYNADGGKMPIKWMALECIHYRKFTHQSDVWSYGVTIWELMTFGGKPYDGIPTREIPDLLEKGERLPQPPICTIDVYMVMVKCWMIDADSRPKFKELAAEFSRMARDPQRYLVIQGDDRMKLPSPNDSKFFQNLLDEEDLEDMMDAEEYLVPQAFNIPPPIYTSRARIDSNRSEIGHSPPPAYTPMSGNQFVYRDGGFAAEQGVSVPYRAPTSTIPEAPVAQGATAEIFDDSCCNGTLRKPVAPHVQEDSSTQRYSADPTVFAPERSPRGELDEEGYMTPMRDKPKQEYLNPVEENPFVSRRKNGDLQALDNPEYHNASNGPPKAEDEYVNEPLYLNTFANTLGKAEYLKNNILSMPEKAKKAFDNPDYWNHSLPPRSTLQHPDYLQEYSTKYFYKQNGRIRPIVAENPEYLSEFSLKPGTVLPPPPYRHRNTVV

FGFR1 = molecular target: T4, FGFR1 (Homo sapiens, UniProt P11362); experiment: Kinase inhibition assay (33P transfer), FGFR1; settings: read-out: FGFR1-1
T4 construct: Kinases are expressed as either kinase domains or full length constructs; made in house
T4 sequence (P11362 22-822, species assumed): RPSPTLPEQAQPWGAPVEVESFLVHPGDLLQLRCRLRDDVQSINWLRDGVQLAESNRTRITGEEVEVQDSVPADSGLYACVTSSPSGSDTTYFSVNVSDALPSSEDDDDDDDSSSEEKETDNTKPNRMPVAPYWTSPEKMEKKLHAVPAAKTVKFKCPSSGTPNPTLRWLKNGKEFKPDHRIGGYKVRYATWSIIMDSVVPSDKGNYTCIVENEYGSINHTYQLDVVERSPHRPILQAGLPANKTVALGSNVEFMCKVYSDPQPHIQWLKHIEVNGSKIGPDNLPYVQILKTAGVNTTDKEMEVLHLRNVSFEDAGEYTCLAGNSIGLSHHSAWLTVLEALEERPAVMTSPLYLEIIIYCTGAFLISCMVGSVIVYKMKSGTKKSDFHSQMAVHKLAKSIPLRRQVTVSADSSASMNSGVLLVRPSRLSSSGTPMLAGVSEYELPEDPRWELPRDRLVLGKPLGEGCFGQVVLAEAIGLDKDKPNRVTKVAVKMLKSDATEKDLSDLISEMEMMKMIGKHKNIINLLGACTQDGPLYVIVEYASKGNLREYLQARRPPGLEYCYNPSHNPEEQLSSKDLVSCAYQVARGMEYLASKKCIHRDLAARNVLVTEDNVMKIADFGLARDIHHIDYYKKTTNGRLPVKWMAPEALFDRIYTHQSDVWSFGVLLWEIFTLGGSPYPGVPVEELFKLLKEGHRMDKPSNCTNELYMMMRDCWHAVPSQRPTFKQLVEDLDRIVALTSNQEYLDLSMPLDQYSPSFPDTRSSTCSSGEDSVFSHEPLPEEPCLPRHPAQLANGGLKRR

IGFR-1 = molecular target: T5, IGFR-1 (Homo sapiens, UniProt P08069); experiment: Kinase inhibition assay (33P transfer), IGFR-1; settings: Table 2, kinase inhibition class
T5 construct: Kinases are expressed as either kinase domains or full length constructs; made in house

Lck = molecular target: T6, Lck (Homo sapiens, UniProt P06239); experiment: Kinase inhibition assay (33P transfer), Lck; settings: Table 3; read-out: Lck-1
T6 construct: Kinases are expressed as either kinase domains or full length constructs; made in house
T6 sequence (P06239 whole entry, species assumed, the tested form may be a part): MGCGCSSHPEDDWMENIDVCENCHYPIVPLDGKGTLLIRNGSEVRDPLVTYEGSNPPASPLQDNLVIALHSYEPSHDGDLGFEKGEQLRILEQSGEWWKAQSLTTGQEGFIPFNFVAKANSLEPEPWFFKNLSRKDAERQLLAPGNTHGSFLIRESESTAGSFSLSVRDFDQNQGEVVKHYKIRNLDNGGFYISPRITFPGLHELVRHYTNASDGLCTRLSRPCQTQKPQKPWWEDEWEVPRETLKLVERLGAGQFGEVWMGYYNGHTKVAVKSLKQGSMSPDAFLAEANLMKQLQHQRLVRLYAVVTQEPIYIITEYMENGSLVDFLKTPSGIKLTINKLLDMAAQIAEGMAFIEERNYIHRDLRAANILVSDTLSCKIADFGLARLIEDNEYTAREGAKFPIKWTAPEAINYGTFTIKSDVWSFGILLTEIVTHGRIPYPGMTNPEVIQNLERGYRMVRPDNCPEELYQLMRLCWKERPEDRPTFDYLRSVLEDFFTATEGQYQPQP
Summary of the method: (§1)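 Recombinant kinase-domain or full-length fusion proteins (GST or His tag) served as enzyme. Substrate poly(Glu,Tyr) 4:1 or poly(Arg,Ser) 3:1 was bound to the plate; transferred 33P was read by liquid scintillation following acid washing.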

EGFR = molecular target: T7, EGFR (Homo sapiens, UniProt P00533); experiment: Kinase inhibition assay (33P transfer), EGFR; settings: Table 2, kinase inhibition class; read-out: EGFR-1
T7 construct: Kinases are expressed as either kinase domains or full length constructs; made in house
Summary of the method: (§2)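 Read-out: scintillation counts of 33P moved from ATP onto synthetic peptide polymer coated on the well surface, after washing with 0.5% phosphoric acid. Enzymes were tagged (GST or polyHistidine) and came from bacterial or insect-cell expression. IC50 marks 50% loss of incorporated label.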

c-Met = molecular target: T8, c-Met (Homo sapiens, UniProt P08581); experiment: Kinase inhibition assay (33P transfer), c-Met; settings: Table 2, kinase inhibition class; read-out: Met-1
T8 construct: Kinases are expressed as either kinase domains or full length constructs; made in house
Summary of the method: as §2

Itk = molecular target: T9, Itk (Homo sapiens, UniProt Q08881); experiment: Kinase inhibition assay (33P transfer), Itk; settings: Table 3; read-out: Itk-1
T9 construct: Kinases are expressed as either kinase domains or full length constructs; made in house
T9 sequence (Q08881 1-620): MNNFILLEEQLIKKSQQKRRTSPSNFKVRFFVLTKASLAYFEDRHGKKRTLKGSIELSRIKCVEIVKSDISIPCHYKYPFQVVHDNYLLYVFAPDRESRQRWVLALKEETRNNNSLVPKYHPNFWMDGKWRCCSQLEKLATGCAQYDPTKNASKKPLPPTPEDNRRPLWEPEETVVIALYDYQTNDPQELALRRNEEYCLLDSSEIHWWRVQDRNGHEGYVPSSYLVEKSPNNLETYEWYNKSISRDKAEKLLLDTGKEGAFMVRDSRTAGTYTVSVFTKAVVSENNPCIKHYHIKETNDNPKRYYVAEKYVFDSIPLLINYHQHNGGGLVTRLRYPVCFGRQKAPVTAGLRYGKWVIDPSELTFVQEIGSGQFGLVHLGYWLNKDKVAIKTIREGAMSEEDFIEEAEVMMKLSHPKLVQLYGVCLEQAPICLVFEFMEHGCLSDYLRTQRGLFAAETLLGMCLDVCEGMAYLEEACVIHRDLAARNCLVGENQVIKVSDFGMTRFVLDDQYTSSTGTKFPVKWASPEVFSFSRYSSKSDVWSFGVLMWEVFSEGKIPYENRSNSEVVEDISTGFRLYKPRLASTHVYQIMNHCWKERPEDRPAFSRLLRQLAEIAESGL
Summary of the method: as §2

Tek = molecular target: T10, Tek (Homo sapiens, UniProt Q02763); experiment: Kinase inhibition assay (33P transfer), Tek; settings: read-out: Tek-1
T10 construct: Kinases are expressed as either kinase domains or full length constructs; made in house
T10 sequence (Q02763 23-1124, species assumed): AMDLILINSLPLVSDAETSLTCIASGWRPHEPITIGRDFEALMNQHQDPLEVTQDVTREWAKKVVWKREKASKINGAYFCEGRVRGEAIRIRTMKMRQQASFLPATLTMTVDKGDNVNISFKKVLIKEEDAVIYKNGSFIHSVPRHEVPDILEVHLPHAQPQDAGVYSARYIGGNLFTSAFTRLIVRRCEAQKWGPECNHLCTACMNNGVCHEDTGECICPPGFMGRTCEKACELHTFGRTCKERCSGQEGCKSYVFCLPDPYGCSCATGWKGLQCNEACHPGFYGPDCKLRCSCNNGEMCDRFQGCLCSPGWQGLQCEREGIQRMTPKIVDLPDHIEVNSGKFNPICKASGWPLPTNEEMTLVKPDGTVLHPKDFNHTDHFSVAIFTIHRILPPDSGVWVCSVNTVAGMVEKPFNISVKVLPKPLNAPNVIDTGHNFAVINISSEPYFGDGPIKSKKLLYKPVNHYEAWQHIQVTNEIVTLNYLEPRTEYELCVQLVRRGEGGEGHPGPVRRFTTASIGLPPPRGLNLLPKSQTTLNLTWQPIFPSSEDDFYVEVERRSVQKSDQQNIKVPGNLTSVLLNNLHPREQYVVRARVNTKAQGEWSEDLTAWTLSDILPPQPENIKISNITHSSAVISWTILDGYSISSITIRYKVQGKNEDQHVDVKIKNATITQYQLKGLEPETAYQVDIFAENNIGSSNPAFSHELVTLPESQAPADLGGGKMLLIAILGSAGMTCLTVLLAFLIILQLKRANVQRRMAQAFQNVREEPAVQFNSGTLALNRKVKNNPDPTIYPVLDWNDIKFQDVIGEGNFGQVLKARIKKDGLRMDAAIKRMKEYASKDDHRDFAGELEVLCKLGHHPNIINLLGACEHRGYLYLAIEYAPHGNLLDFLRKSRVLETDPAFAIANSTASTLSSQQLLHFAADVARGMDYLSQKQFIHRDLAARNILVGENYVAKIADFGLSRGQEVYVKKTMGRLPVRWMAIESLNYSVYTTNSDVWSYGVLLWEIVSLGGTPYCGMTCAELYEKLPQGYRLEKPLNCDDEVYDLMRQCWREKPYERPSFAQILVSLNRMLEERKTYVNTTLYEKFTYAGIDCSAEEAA
Summary of the method: as §2

Kdr = molecular target: T11, Kdr (Homo sapiens, UniProt P35968); experiment: Kinase inhibition assay (33P transfer), Kdr; settings: Table 3; read-out: KDR-1
T11 construct: Kinases are expressed as either kinase domains or full length constructs; made in house
Summary of the method: as §1

Src = molecular target: T12, Src (Homo sapiens, UniProt P12931); experiment: Kinase inhibition assay (33P transfer), Src; settings: Table 6, Src-1 kinase inhibition class
T12 construct: Kinases are expressed as either kinase domains or full length constructs; made in house
T12 sequence (P12931 whole entry, species assumed, the tested form may be a part): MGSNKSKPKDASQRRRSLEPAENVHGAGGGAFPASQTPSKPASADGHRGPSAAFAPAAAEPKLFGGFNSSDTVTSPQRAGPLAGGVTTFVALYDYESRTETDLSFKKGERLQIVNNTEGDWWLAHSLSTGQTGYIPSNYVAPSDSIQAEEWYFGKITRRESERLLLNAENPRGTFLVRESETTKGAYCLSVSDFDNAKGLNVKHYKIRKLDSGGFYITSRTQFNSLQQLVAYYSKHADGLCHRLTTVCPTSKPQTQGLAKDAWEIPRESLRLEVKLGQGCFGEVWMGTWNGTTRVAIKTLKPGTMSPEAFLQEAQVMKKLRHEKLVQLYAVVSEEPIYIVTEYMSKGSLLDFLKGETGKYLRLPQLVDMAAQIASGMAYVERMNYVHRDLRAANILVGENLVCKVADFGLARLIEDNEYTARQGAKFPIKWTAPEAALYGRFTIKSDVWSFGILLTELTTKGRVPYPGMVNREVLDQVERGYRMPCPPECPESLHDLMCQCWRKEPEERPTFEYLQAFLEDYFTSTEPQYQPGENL
Summary of the method: as §2

Lyn = molecular target: T13, Lyn (Homo sapiens, UniProt P07948); experiment: Kinase inhibition assay (33P transfer), Lyn; settings: Table 6, Lyn-1 kinase inhibition class
T13 construct: Kinases are expressed as either kinase domains or full length constructs; made in house
T13 sequence (P07948 whole entry, species assumed, the tested form may be a part): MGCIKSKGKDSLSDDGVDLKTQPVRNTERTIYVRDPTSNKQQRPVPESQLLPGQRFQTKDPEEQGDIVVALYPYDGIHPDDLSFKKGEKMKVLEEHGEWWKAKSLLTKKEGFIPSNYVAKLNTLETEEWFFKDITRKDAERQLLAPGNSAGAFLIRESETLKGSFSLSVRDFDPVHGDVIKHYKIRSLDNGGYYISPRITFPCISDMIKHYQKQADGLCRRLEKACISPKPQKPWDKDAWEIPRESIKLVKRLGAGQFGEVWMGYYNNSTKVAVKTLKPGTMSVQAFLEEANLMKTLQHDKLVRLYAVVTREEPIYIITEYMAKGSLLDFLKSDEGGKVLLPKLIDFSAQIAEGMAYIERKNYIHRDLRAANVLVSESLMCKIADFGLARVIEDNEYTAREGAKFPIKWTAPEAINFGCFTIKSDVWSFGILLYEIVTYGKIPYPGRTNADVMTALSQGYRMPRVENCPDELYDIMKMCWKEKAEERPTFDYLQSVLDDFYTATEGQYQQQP
Summary of the method: as §2

Row | Compound | IC50 (Ret-1) [µM] | IC50 (PDGFRB) [µM] | IC50 (ErbB4) [µM] | IC50 (FGFR1) [µM] | IC50 (IGFR-1) [µM] | IC50 (Lck) [µM] | IC50 (EGFR) [µM] | IC50 (c-Met) [µM] | IC50 (Itk) [µM] | IC50 (Tek) [µM] | IC50 (Kdr) [µM] | IC50 (Src) [µM] | IC50 (Lyn) [µM]
1 | COc1cc2ccn(-c3ncnc(Nc4cc(OC)c(OC)c(OC)c4)n3)c2cc1OC [Compound 239] | > 10.3 | > 10.3 | > 10.3 | > 10.3 | > 10.3 | > 10.3 | 8 to 10.3 | > 10.3 | > 10.3 | > 10.3 | 0.914 to 5.49 | > 10.3 | > 10.3
2 | COc1cc(Nc2ncnc(-n3cnc4ccccc43)n2)cc(OC)c1OC [Compound 186] | > 11.9 | < 1.06 | > 11.9 | > 11.9 | 1.06 to 6.34 | 1.06 to 6.34 | 9.25 to 11.9 | 1.06 to 6.34 | > 11.9 | 9.25 to 11.9 | < 1.06 | > 11.9 | 9.25 to 11.9
3 | COc1cc(Nc2ncnc(Nc3ccc(OCc4ccccc4)cc3)n2)cc(OC)c1 [Compound 156] | > 10.5 | 8.15 to 10.5 | 5.59 to 8.15 | 0.931 to 5.59 | > 10.5 | 8.15 to 10.5 | < 0.931 | 8.15 to 10.5 | > 10.5 | > 10.5 | 5.59 to 8.15 | > 10.5 | 5.59 to 8.15
4 | Cc1cccc(Nc2ncnc(Nc3ccc(O)cc3)n2)c1 [Compound 107] | 1.36 to 8.18 | 1.36 to 8.18 | 8.18 to 11.9 | 1.36 to 8.18 | 1.36 to 8.18 | 1.36 to 8.18 | < 1.36 | 8.18 to 11.9 | 1.36 to 8.18 | > 15.3 | 1.36 to 8.18 | < 1.36 | < 1.36
5 | COc1cc(Nc2ncnc(Nc3nnc(-c4ccccc4)[nH]3)n2)cc(OC)c1OC [Compound 311] | > 10.7 | > 10.7 | > 10.7 | > 10.7 | > 10.7 | > 10.7 | > 10.7 | 0.951 to 5.71 | > 10.7 | > 10.7 | 0.951 to 5.71 | > 10.7 | > 10.7
6 | COc1ccc(Nc2ncnc(N(CC(=O)O)c3ccc4c(c3)OCO4)n2)cc1OC [Compound 320] | > 10.6 | > 10.6 | > 10.6 | > 10.6 | > 10.6 | 5.64 to 8.23 | 0.94 to 5.64 | 5.64 to 8.23 | > 10.6 | > 10.6 | 5.64 to 8.23 | > 10.6 | > 10.6

The remaining lines, values ahead:

Row | IC50 (Ret-1) [µM] | IC50 (PDGFRB) [µM] | IC50 (ErbB4) [µM] | IC50 (FGFR1) [µM] | IC50 (IGFR-1) [µM] | IC50 (Lck) [µM] | IC50 (EGFR) [µM] | IC50 (c-Met) [µM] | IC50 (Itk) [µM] | IC50 (Tek) [µM] | IC50 (Kdr) [µM] | IC50 (Src) [µM] | IC50 (Lyn) [µM] | Compound
7 | 1.03 to 6.16 | < 1.03 | > 11.6 | > 11.6 | < 1.03 | > 11.6 | 1.03 to 6.16 | > 11.6 | > 11.6 | > 11.6 | < 1.03 | 8.99 to 11.6 | 1.03 to 6.16 | COc1cc(Nc2ncnc(Nc3cc(F)ccc3F)n2)cc(OC)c1OC [Compound 316]
8 | < 0.977 | < 0.977 | 0.977 to 5.86 | < 0.977 | < 0.977 | 0.977 to 5.86 | < 0.977 | < 0.977 | 0.977 to 5.86 | 5.86 to 8.55 | < 0.977 | < 0.977 | < 0.977 | COc1cc(Nc2ncnc(Nc3cc(-c4ccco4)n[nH]3)n2)cc(OC)c1OC [Compound 308]
9 | 0.919 to 5.51 | 0.919 to 5.51 | > 10.3 | 0.919 to 5.51 | < 0.919 | 8.04 to 10.3 | > 10.3 | > 10.3 | 0.919 to 5.51 | > 10.3 | 0.919 to 5.51 | > 10.3 | > 10.3 | COc1cc(Nc2ncnc(-n3c(NC(C)=O)nc4ccccc43)n2)cc(OC)c1OC [Compound 334]
10 | < 1.13 | < 1.13 | 1.13 to 6.79 | 1.13 to 6.79 | 6.79 to 9.9 | 1.13 to 6.79 | < 1.13 | > 12.7 | 9.9 to 12.7 | > 12.7 | < 1.13 | 1.13 to 6.79 | 1.13 to 6.79 | COc1ccc(Nc2ncnc(Nc3ccc(C)c(O)c3)n2)cc1OC [Compound 119]
11 | 1.03 to 6.19 | < 1.03 | 6.19 to 9.02 | 1.03 to 6.19 | < 1.03 | 1.03 to 6.19 | < 1.03 | 1.03 to 6.19 | 6.19 to 9.02 | 6.19 to 9.02 | < 1.03 | < 1.03 | < 1.03 | COc1cc(Nc2ncnc(Nc3cccc(Cl)c3)n2)cc(OC)c1OC [Compound 135]
12 | 1.04 to 6.23 | < 1.04 | 1.04 to 6.23 | 6.23 to 9.08 | < 1.04 | 1.04 to 6.23 | < 1.04 | 6.23 to 9.08 | 6.23 to 9.08 | 9.08 to 11.7 | < 1.04 | < 1.04 | < 1.04 | COc1cc(Nc2ncnc(Nc3ccc(C)c(F)c3)n2)cc(OC)c1OC [Compound 300]
